Values belong to the compound of their own block, whether it stands above or below them. Calls of active or inactive are those of the source. The rule behind the calls is not given here.
Key:
Rattus norvegicus = assay: Antiobesity activity in Zucker fa/fa rat assessed as inhibition of 5% sucrose solution intake at 10 mg/kg administered as single dose up to 4 hrs relative to control; type: functional
Cannabinoid receptor 1 = Cannabinoid receptor 1 (Homo sapiens, UniProt P21554); assay: Antagonist activity at human cannabinoid CB1 receptor expressed in CHOK1 cells assessed as cAMP activity; type: functional, cell-based, CHO-K1
Cannabinoid receptor 2 = Cannabinoid receptor 2 (Homo sapiens, UniProt P34972); assay: Antagonist activity at human cannabinoid CB2 receptor expressed in CHOK1 cells assessed as cAMP activity; type: functional, cell-based, CHO-K1
[1] = Drug level in fasted Zucker fa/fa rat white adipose tissue at 30 mg/kg, po after 3 hrs; type: ADME, organism-based; set-up: dose 30 mg/kg, route oral; settings: read-out: Drug uptake
[2] = Drug level in fasted Zucker fa/fa rat brain at 30 mg/kg, po after 3 hrs; type: ADME, organism-based; set-up: dose 30 mg/kg, route oral; settings: read-out: Drug uptake
[3] = Plasma concentration in fasted Zucker fa/fa rat at 30 mg/kg, po after 3 hrs; type: ADME, organism-based; set-up: dose 30 mg/kg, route oral
Mus musculus [4] = assay: Hair growth stimulatory activity in high fat diet-induced C57BL/6J mouse assessed as bald area at 10 mg/kg, po administered once daily for 28 days measured after 28 days (Rvb=0.346 +/- 0.079 cm'2); type: functional
Mus musculus [5] = assay: Hair growth stimulatory activity in high fat diet-induced C57BL/6J mouse at 10 mg/kg administered tropically for 28 days measured after 28 days; type: functional, organism-based; set-up: dose 10 mg/kg
Mus musculus [6] = assay: Inhibition of WIN-55212-2-induced analgesia in Swiss albino mouse assessed as maximal possible effect at 5 mg/kg po by hot plate method; type: functional; set-up: scale not given: the % may be the effect or the level left
[7] = AUC (0 to infinity) in fasted Zucker fa/fa rat at 30 mg/kg, po; type: ADME, organism-based; set-up: time infinity, dose 30 mg/kg, route oral; settings: plasma
Mus musculus [8] = assay: Inhibition of WIN-55212-2-induced analgesia in Swiss albino mouse assessed as maximal possible effect at 10 mg/kg po by hot plate method; type: functional; set-up: scale not given: the % may be the effect or the level left
Mus musculus [9] = assay: Inhibition of WIN-55212-2-induced analgesia in Swiss albino mouse assessed as maximal possible effect at 1 mg/kg po by hot plate method; type: functional; set-up: scale not given: the % may be the effect or the level left
[10] = Half life in fasted Zucker fa/fa rat at 30 mg/kg, po; type: ADME, organism-based; set-up: dose 30 mg/kg, route oral; settings: in vivo
Mus musculus [11] = assay: Inhibition of WIN-55212-2-induced catalepsy in Swiss albino mouse assessed as immobility on ring at 10 mg/kg po up to 300 seconds by ring test; type: functional; set-up: scale not given: the % may be the effect or the level left
Mus musculus [12] = assay: Inhibition of WIN-55212-2-induced catalepsy in Swiss albino mouse assessed as immobility on ring at 1 mg/kg po up to 300 seconds by ring test; type: functional; set-up: scale not given: the % may be the effect or the level left
Mus musculus [13] = assay: Effect on WIN-55212-2-induced locomotor activity in Swiss albino mouse assessed as number of square crossed at 10 mg/kg po up to 300 seconds (RbV=20.67 +/- 3.38 squares); type: functional
Mus musculus [14] = assay: Effect on WIN-55212-2-induced locomotor activity in Swiss albino mouse assessed as number of square crossed at 3 mg/kg po up to 300 seconds (RbV=20.67 +/- 3.38 squares); type: functional
Mus musculus [15] = species on record: Mus musculus; settings: Swiss albino, 10 mg/kg
Description: Inhibition of WIN-55212-2-induced hypothermia in Swiss albino mouse assessed as change in body temperature at 10 mg/kg po

Mus musculus [16] = assay: Antiobesity activity in high fat diet-induced obese C57BL/6J mouse model assessed as reduction in food intake at 10 mg/kg, po administered once daily for 28 days; type: functional, organism-based; set-up: dose 10 mg/kg
Mus musculus [17] = assay: Effect on WIN-55212-2-induced locomotor activity in Swiss albino mouse assessed as number of square crossed at 5 mg/kg po up to 300 seconds (RbV=20.67 +/- 3.38 squares); type: functional
[18] = Cmax in fasted Zucker fa/fa rat at 30 mg/kg, po; type: ADME, organism-based; set-up: dose 30 mg/kg, route oral; settings: in vivo
Mus musculus [19] = assay: Effect on WIN-55212-2-induced locomotor activity in Swiss albino mouse assessed as number of square crossed at 1 mg/kg po up to 300 seconds (RbV=20.67 +/- 3.38 squares); type: functional
Mus musculus [20] = assay: Hair growth stimulatory activity in high fat diet-induced C57BL/6J mouse at 10 mg/kg, po administered once daily for 28 days measured after 28 days; type: functional, organism-based; set-up: dose 10 mg/kg
Mus musculus [21] = assay: Inhibition of WIN-55212-2-induced catalepsy in Swiss albino mouse assessed as immobility on ring at 5 mg/kg po up to 300 seconds by ring test; type: functional; set-up: scale not given: the % may be the effect or the level left
[22] = Tmax in fasted Zucker fa/fa rat at 30 mg/kg, po; type: ADME, organism-based; set-up: dose 30 mg/kg, route oral; settings: in vivo
[23] = Drug level in fasted Zucker fa/fa rat white adipose tissue assessed per gram of tissue at 30 mg/kg, po after 3 hrs; type: ADME, organism-based; set-up: dose 30 mg/kg, route oral; settings: read-out: Drug uptake
Mus musculus [24] = assay: Antiobesity activity in high fat diet-induced obese C57BL/6J mouse model assessed as reduction in body weight gain at 10 mg/kg, po administered once daily for 28 days; type: functional, organism-based; set-up: dose 10 mg/kg
Mus musculus [25] = assay: Inhibition of WIN-55212-2-induced catalepsy in Swiss albino mouse assessed as immobility on ring at 3 mg/kg po up to 300 seconds by ring test; type: functional; set-up: scale not given: the % may be the effect or the level left
[26] = Drug level in fasted Zucker fa/fa rat brain assessed per gram of brain at 30 mg/kg, po after 3 hrs; type: ADME, organism-based; set-up: dose 30 mg/kg, route oral; settings: read-out: Drug uptake
Mus musculus [27] = species on record: Mus musculus; settings: Swiss albino, 3 mg/kg
Description: Inhibition of WIN-55212-2-induced hypothermia in Swiss albino mouse assessed as change in body temperature at 3 mg/kg po

Mus musculus [28] = assay: Inhibition of WIN-55212-2-induced analgesia in Swiss albino mouse assessed as maximal possible effect at 3 mg/kg po by hot plate method; type: functional; set-up: scale not given: the % may be the effect or the level left
Mus musculus [29] = species on record: Mus musculus; settings: Swiss albino, 5 mg/kg
Description: Inhibition of WIN-55212-2-induced hypothermia in Swiss albino mouse assessed as change in body temperature at 5 mg/kg po

Mus musculus [30] = species on record: Mus musculus; settings: Swiss albino, 1 mg/kg
Description: Inhibition of WIN-55212-2-induced hypothermia in Swiss albino mouse assessed as change in body temperature at 1 mg/kg po

Sequence of Cannabinoid receptor 1 (P21554 whole entry): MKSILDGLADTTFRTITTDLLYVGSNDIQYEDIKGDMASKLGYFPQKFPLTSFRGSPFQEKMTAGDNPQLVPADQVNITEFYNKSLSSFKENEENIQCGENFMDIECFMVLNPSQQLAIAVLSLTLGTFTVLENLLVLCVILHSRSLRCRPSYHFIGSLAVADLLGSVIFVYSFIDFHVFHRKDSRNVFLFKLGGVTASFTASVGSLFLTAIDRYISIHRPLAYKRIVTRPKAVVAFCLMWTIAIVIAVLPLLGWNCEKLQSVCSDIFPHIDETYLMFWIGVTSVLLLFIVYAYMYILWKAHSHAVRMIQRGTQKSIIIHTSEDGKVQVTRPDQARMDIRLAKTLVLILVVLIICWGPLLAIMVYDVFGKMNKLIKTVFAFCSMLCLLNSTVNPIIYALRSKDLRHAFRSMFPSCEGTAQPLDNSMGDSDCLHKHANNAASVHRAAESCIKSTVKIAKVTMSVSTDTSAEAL
Sequence of Cannabinoid receptor 2 (P34972 whole entry): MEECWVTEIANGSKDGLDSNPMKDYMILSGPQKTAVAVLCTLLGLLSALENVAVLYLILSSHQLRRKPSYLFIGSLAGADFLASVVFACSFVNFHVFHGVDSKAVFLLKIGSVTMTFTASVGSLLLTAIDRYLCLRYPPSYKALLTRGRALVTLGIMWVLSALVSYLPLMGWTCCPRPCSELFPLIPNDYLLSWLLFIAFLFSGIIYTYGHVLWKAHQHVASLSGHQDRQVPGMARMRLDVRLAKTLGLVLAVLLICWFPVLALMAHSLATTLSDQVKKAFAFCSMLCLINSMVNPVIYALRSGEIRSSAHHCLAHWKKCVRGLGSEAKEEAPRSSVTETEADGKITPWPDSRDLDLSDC

EC50 (Cannabinoid receptor 1): 1.1 µM
EC50 (Cannabinoid receptor 2): 12.8 µM
Compound: Cc1c(C(=O)NN2CCCCCC2)nn(-c2ccc(Cl)cc2Cl)c1-c1ccc(Cl)s1
inhibition in vivo at 10 mg/kg (Rattus norvegicus): 20.1%

concentration at 3 h [1]: 1400 ng/mL
concentration at 3 h [2]: 150 ng/mL
concentration at 3 h [3]: 400 ng/mL
Compound: Cc1c(C(=O)NN2CCCCC2)nn(-c2ccc(Cl)cc2Cl)c1-c1ccc(Cl)cc1 [RIMONABANT]
inhibition in vivo at 10 mg/kg (Rattus norvegicus): 40.1%
Activity (Mus musculus [4]): 0.156 cm2
Activity (Mus musculus [5]): inactive

EC50 (Cannabinoid receptor 1): 0.32 µM
EC50 (Cannabinoid receptor 2): 29.4 µM
Compound: Cc1c(C(=O)NN2CCCCC2)nn(-c2ccc(Cl)cc2Cl)c1-c1ccc(I)s1
inhibition in vivo at 10 mg/kg (Rattus norvegicus): 42.1%

concentration at 3 h [1]: 980 ng/mL
AUC(0-inf) [7]: 12400 ng·h/mL
concentration at 3 h [2]: 210 ng/mL
half-life [10]: 20.8 h
EC50 (Cannabinoid receptor 1): 0.58 µM
Cmax [18]: 520 ng/mL
EC50 (Cannabinoid receptor 2): 23.7 µM
Tmax [22]: 1.4 h
concentration at 3 h [23]: 2970 ng/g
concentration at 3 h [3]: 850 ng/mL
concentration at 3 h [26]: 640 ng/g
Compound: Cc1c(C(=O)NN2CCCCC2)nn(-c2ccc(Cl)cc2Cl)c1-c1ccc(Cl)s1
Activity (Mus musculus [6]): 4.12%
Activity (Mus musculus [8]): 4.35%
inhibition in vivo at 10 mg/kg (Rattus norvegicus): 48%
Activity (Mus musculus [9]): 34.84%
Activity (Mus musculus [11]): 41.8%
Activity (Mus musculus [12]): 80.73%
Activity (Mus musculus [13]): 171.4
Activity (Mus musculus [14]): 109.2
deltaT (Mus musculus [15]): 0.23 °C
Activity (Mus musculus [16]): Active
Activity (Mus musculus [17]): 126.5
Activity (Mus musculus [19]): 69.8
Activity (Mus musculus [20]): Active
Activity (Mus musculus [21]): 58.13%
Activity (Mus musculus [24]): Active
Activity (Mus musculus [25]): 73.13%
Activity (Mus musculus [4]): 0.011 cm2
deltaT (Mus musculus [27]): 1.92 °C
Activity (Mus musculus [5]): inactive
Activity (Mus musculus [28]): 12.28%
deltaT (Mus musculus [29]): 0.23 °C
deltaT (Mus musculus [30]): 2.56 °C

EC50 (Cannabinoid receptor 1): 1 µM
EC50 (Cannabinoid receptor 2): 20.9 µM
Compound: Cc1c(C(=O)NN2CCCC2)nn(-c2ccc(Cl)cc2Cl)c1-c1ccc(Cl)s1
inhibition in vivo at 10 mg/kg (Rattus norvegicus): 34.3%

Second part, the compound before the results:

Compound: Cc1c(C(=O)NN2CCOCC2)nn(-c2ccc(Cl)cc2Cl)c1-c1ccc(Cl)s1
inhibition in vivo at 10 mg/kg (Rattus norvegicus): 31.5%
EC50 (Cannabinoid receptor 1): 0.69 µM
EC50 (Cannabinoid receptor 2): 7.43 µM

Compound: Cc1c(C(=O)NN2CC3CCCC3C2)nn(-c2ccc(Cl)cc2Cl)c1-c1ccc(Cl)s1 (stereo unspecified)
inhibition in vivo at 10 mg/kg (Rattus norvegicus): 26.3%
EC50 (Cannabinoid receptor 1): 0.8 µM
EC50 (Cannabinoid receptor 2): 15.7 µM

Compound: Cc1c(C(=O)NN2CCCCC2)nn(-c2ccc(Cl)cc2Cl)c1-c1cccs1
inhibition in vivo at 10 mg/kg (Rattus norvegicus): 12.4%
EC50 (Cannabinoid receptor 1): 1.33 µM
EC50 (Cannabinoid receptor 2): 7.55 µM

Compound: Cc1c(C(=O)NN2CCCCC2)nn(-c2ccc(Cl)cc2Cl)c1-c1ccc(Br)s1
inhibition in vivo at 10 mg/kg (Rattus norvegicus): 37.8%
EC50 (Cannabinoid receptor 1): 0.4 µM
EC50 (Cannabinoid receptor 2): 23.2 µM

Compound: CCc1c(C(=O)NN2CCCCC2)nn(-c2ccc(Cl)cc2Cl)c1-c1ccc(Br)s1
inhibition in vivo at 10 mg/kg (Rattus norvegicus): 39.2%
EC50 (Cannabinoid receptor 1): 0.51 µM
EC50 (Cannabinoid receptor 2): 19.5 µM

Compound: CCc1c(C(=O)NN2CCCCC2)nn(-c2ccc(Cl)cc2Cl)c1-c1ccc(Cl)s1
inhibition in vivo at 10 mg/kg (Rattus norvegicus): 31.3%
EC50 (Cannabinoid receptor 1): 0.54 µM
EC50 (Cannabinoid receptor 2): 25.9 µM

From ChEMBL document CHEMBL1138591, “Hair growth stimulator property of thienyl substituted pyrazole carboxamide derivatives as a CB1 receptor antagonist with in vivo antiobesity effect” (Bioorg Med Chem Lett, 2009)
